Patent US3997549A, “N-arylsulfenylated derivatives of benzofuranyl methylcarbamates” (priority 1973, dated 1976)
≈ marks a conversion by molar mass, not a printed value. Like-named read-outs stand apart in the source and are kept apart here.

Key:
Culex fatigans = experiment: whole plant or invertebrate; conditions: Culex quinquefasciatus, 24 h, read-out: Mosquitoes LC50
Protocol: The appropriate amount of stock solution was added with stirring to 100 ml of tap water and 20-25 fourth instar larvae of Culex fatigans were placed in the solution. After twenty-four hours, the counts were taken. Larvae not able to rise to the surface on touch were counted as dead. Each concentration was run in duplicate and each material was run on two or three different days. The average percent mortality was plotted against the logarithm of the concentration (in ppm) and the LC50 value determined by inspection.

southern army worm [1] = conditions: 2880 min
pea aphid [2] = experiment: whole plant or invertebrate; conditions: Acyrthosiphon pisum, 48 h, read-out: % Kill, PA (systemic)
in vivo = conditions: mouse, po
Protocol: Acute oral toxicity of the compounds of the present invention to mice was determined after the manner of Hollingworth, Fukuto, and Metcalf in J. Agr. […] A dose of 0.25 ml of each solution was administered to each of four female white Swiss mice using the "bolus" - tipped syringe. […] Final mortality determinations were made forty-eight hours after treatment.

Mexican bean beetle [3] = experiment: whole plant or invertebrate; conditions: Epilachna varivestis, 48 h, read-out: % Kill, BB (systemic)
two-spotted spider mite [4] = experiment: whole plant or invertebrate; conditions: Tetranychus urticae, 48 h
houseflies = experiment: whole plant or invertebrate; conditions: Musca domestica, topical, 24 h, read-out: Houseflies LD50
Protocol: Toxicity of the compounds of the present invention to houseflies was tested using the technique described by March and Metcalf in Bull. Calif. State Dept. Agr. […] Adult female houseflies were treated with one drop of acetone solution, applied to the prothorax, using a syringe calibrated to deliver 1.00 ± 0.05 mm^3 drops. Twenty flies were treated at each dosage, each test compound was applied at 8 to 10 dosage levels. Each test was replicated three times. […] A one-inch square of cotton saturated with 40% sugar solution was provided for food in each carton. The cartons of flies were held in a constant temperature chamber at 60° F and 60% relative humidity for 24 hours before mortality counts were made. Flies totally unable to make crawling or walking movements were counted as dead. LD50 values were calculated in the conventional manner.

plum curculio [5] = experiment: Residual contact activity, plum curculio; conditions: Conotrachelus nenuphar, 48 h, read-out: % Kill, PC (residual contact)
plum curculio [6] = experiment: Initial contact activity, plum curculio; conditions: Conotrachelus nenuphar, 48 h, read-out: % Kill, PC (initial contact)
Mexican bean beetle [7] = experiment: Initial contact activity, Mexican bean beetle; conditions: Epilachna varivestis, 48 h, read-out: % Kill, BB (initial contact)
southern army worm [8] = experiment: Initial contact activity, southern army worm; conditions: 1250 ppm, 48 h exposure
two-spotted spider mite [9] = experiment: Residual contact activity, two-spotted spider mite; conditions: Tetranychus urticae, 48 h, read-out: % Kill, SM (residual contact)
granary weevil [10] = experiment: Residual contact activity, granary weevil; conditions: Sitophilus granarius, 48 h, read-out: % Kill, GW (residual contact)
Mexican bean beetle [11] = experiment: Residual contact activity, Mexican bean beetle; conditions: Epilachna varivestis, 48 h, read-out: % Kill, BB (residual contact)
milkweed bug [12] = experiment: Initial contact activity, milkweed bug; conditions: Oncopeltus fasciatus, 48 h, read-out: % Kill, MWB (initial contact)
two-spotted spider mite [13] = experiment: Initial contact activity, two-spotted spider mite; conditions: Tetranychus urticae, 48 h, read-out: % Kill, SM (initial contact)
granary weevil [14] = experiment: Initial contact activity, granary weevil; conditions: Sitophilus granarius, 48 h, read-out: % Kill, GW (initial contact)
milkweed bug [15] = experiment: Residual contact activity, milkweed bug; conditions: Oncopeltus fasciatus, 48 h, read-out: % Kill, MWB (residual contact)
pea aphid [16] = experiment: Initial contact activity, pea aphid; conditions: Acyrthosiphon pisum, 48 h, read-out: % Kill, PA (initial contact)
pea aphid [17] = experiment: Residual contact activity, pea aphid; conditions: Acyrthosiphon pisum, 48 h, read-out: % Kill, PA (residual contact)
southern army worm [18] = experiment: Residual contact activity, southern army worm; conditions: 1250 ppm; 7 days; 2880 min
[19] = 39 ppm soil watering, group printed before the slash (separate test vs carbofuran)
[20] = read-out: % Kill, SM (systemic)

Row | SMILES | LC50 (Culex fatigans) [ng/mL] | % Kill, AW (systemic) (southern army worm [1]; [19]) [%] | % Kill, AW (systemic) (southern army worm [1]; 156 ppm soil watering) [%] | mortality at 39 ppm (pea aphid [2]) [%] | mortality at 156 ppm (pea aphid [2]) [%] | LD50 at 48 h (in vivo) [mg/kg] | mortality at 39 ppm (Mexican bean beetle [3]) [%] | mortality at 156 ppm (Mexican bean beetle [3]) [%] | LD50 (houseflies) [mg/kg] | mortality at 1250 ppm (plum curculio [5]) [%] | mortality at 1250 ppm (plum curculio [6]) [%] | mortality at 1250 ppm (Mexican bean beetle [7]) [%] | % Kill, AW (initial contact) (southern army worm [8]) [%] | mortality at 1250 ppm (two-spotted spider mite [9]) [%] | mortality at 1250 ppm (granary weevil [10]) [%] | mortality at 1250 ppm (Mexican bean beetle [11]) [%] | mortality at 1250 ppm (milkweed bug [12]) [%] | mortality at 39 ppm (two-spotted spider mite [4]; [20]) [%] | mortality at 156 ppm (two-spotted spider mite [4]; [20]) [%] | mortality at 1250 ppm (two-spotted spider mite [13]) [%] | further results
1 | CNC(=O)Oc1cccc2c1OC(C)(C)C2 [Carbofuran, 2,3-dihydro-2,2-dimethyl-7-benzofuranyl methylcarbamate, reference compound] | 52 (≈ 0.235 µM) | 50 | 100 | 100 | 100 | 2 | 100 | 100 | – | – | – | – | – | – | – | – | – | – | – | – | % Kill, AW (systemic) (southern army worm [1]; 39 ppm soil watering, separate test vs carbofuran): 100%; mortality at 39 ppm (two-spotted spider mite [4]; read-out: % Kill, SM (systemic), 39 ppm soil watering, group printed before the slash (separate test vs carbofuran)): 5%; mortality at 39 ppm (two-spotted spider mite [4]; read-out: % Kill, SM (systemic), 39 ppm soil watering, separate test vs carbofuran): 3%; mortality at 156 ppm (two-spotted spider mite [4]; read-out: % Kill, SM (systemic), 156 ppm soil watering, group printed before the slash (separate test vs carbofuran)): 43%; mortality at 156 ppm (two-spotted spider mite [4]; read-out: % Kill, SM (systemic), 156 ppm soil watering, separate test vs carbofuran): 70%
2 | CN(Sc1ccccc1)C(=O)Oc1cccc2c1OC(C)(C)C2 [Example I, 2,3-Dihydro-2,2-dimethyl-7-benzofuranyl (methyl)(phenylthio)carbamate] | 4.5 (≈ 0.0137 µM) | – | – | – | – | 25 to 50 | – | – | 9.3 | – | – | – | – | – | – | – | – | – | – | – | –
3 | CN(Sc1ccc(Cl)cc1)C(=O)Oc1cccc2c1OC(C)(C)C2 [Example V, 2,3-Dihydro-2,2-dimethyl-7-benzofuranyl (4-chlorophenylthio)(methyl)carbamate] | 2 (≈ 0.0055 µM) | 50 | 80 | 100 | 100 | 50 | 95 | 100 | 12.5 | 95 | 100 | 100 | 100 | 5 | 100 | 100 | 100 | 29 | 33 | 100 | mortality at 1250 ppm (granary weevil [14]): 100%; mortality at 1250 ppm (milkweed bug [15]): 100%; mortality at 1250 ppm (pea aphid [16]): 100%; mortality at 1250 ppm (pea aphid [17]): 95%; % Kill, AW (residual contact) (southern army worm [18]): 100%
4 | CN(Sc1nc2ccccc2s1)C(=O)Oc1cccc2c1OC(C)(C)C2 [Example VII, 2,3-Dihydro-2,2-dimethyl-7-benzofuranyl (2-benzothiazolylthio)(methyl)carbamate] | 9.5 (≈ 0.0246 µM) | 0 | 60 | 100 | 100 | 50 | 68 | 81 | 8.5 | 55 | 100 | 91 | 62 | 5 | 100 | 100 | 100 | 3 | 2 | 72 | mortality at 1250 ppm (granary weevil [14]): 100%; mortality at 1250 ppm (milkweed bug [15]): 100%; mortality at 1250 ppm (pea aphid [16]): 100%; mortality at 1250 ppm (pea aphid [17]): 0%; % Kill, AW (residual contact) (southern army worm [18]): 100%
5 | COc1ccc(SN(C)C(=O)Oc2cccc3c2OC(C)(C)C3)cc1 [IX, 2,3-Dihydro-2,2-dimethyl-7-benzofuranyl (4-methoxyphenylthio)(methyl)carbamate] | 6 (≈ 0.0167 µM) | – | – | – | – | 25 to 50 | – | – | 7.8 | – | – | – | – | – | – | – | – | – | – | – | –
6 | CN(Sc1ccc(Br)cc1)C(=O)Oc1cccc2c1OC(C)(C)C2 [VIII, 2,3-Dihydro-2,2-dimethyl-7-benzofuranyl (4-bromophenylthio)(methyl)carbamate] | 4 (≈ 0.0098 µM) | – | – | – | – | 50 to 75 | – | – | 9 | – | – | – | – | – | – | – | – | – | – | – | –
7 | Cc1cc(Br)ccc1SN(C)C(=O)Oc1cccc2c1OC(C)(C)C2 [XI, 2,3-Dihydro-2,2-dimethyl-7-benzofuranyl (4-bromo-2-methylphenylthio)(methyl)carbamate] | 2.5 (≈ 0.00592 µM) | 75 | 100 | 100 | 100 | 100 to 150 | 95 | 100 | 11.2 | 40 | 100 | 100 | 100 | 3 | 100 | 100 | 100 | 23 | 28 | 9 | mortality at 1250 ppm (granary weevil [14]): 100%; mortality at 1250 ppm (milkweed bug [15]): 95%; mortality at 1250 ppm (pea aphid [16]): 35%; mortality at 1250 ppm (pea aphid [17]): 10%; % Kill, AW (residual contact) (southern army worm [18]): 100%
8 | CC(C)c1ccccc1SN(C)C(=O)Oc1cccc2c1OC(C)(C)C2 [XII, 2,3-Dihydro-2,2-dimethyl-7-benzofuranyl (2-isopropylphenylthio) (methyl)carbamate] | 3 (≈ 0.00808 µM) | – | – | – | – | 50 to 75 | – | – | 8.3 | – | – | – | – | – | – | – | – | – | – | – | –
9 | Cc1ccc(SN(C)C(=O)Oc2cccc3c2OC(C)(C)C3)c(C)c1 [XIII, 2,3-Dihydro-2,2-dimethyl-7-benzofuranyl (2,4-dimethylphenylthio)(methyl)carbamate] | 3 (≈ 0.00839 µM) | – | – | – | – | 50 to 100 | – | – | 9 | – | – | – | – | – | – | – | – | – | – | – | –
10 | CN(Sc1ccc2c(c1)OCO2)C(=O)Oc1cccc2c1OC(C)(C)C2 [XIV, 2,3-Dihydro-2,2-dimethyl-7-benzofuranyl (methyl)(3,4-methylenedioxyphenylthio)carbamate] | 6.5 (≈ 0.0174 µM) | 14 | 64 | 100 | 100 | 10 to 25 | 90 | 94 | 5 | 80 | 100 | 100 | 100 | 2 | 100 | 100 | 100 | 10 | 16 | 38 | mortality at 1250 ppm (granary weevil [14]): 100%; mortality at 1250 ppm (milkweed bug [15]): 100%; mortality at 1250 ppm (pea aphid [16]): 100%; mortality at 1250 ppm (pea aphid [17]): 10%; % Kill, AW (residual contact) (southern army worm [18]): 100%
11 | CN(Sc1ccc(C#N)cc1)C(=O)Oc1cccc2c1OC(C)(C)C2 [XV, 2,3-Dihydro-2,2-dimethyl-7-benzofuranyl (4-cyanophenylthio)(methyl)carbamate] | 22 (≈ 0.0621 µM) | – | – | – | – | 25 to 50 | – | – | 22.5 | – | – | – | – | – | – | – | – | – | – | – | –
12 | CN(Sc1ccc2ccccc2c1)C(=O)Oc1cccc2c1OC(C)(C)C2 [XVII, 2,3-Dihydro-2,2-dimethyl-7-benzofuranyl (methyl)(2-naphthylthio)carbamate] | 3.2 (≈ 0.00843 µM) | – | – | – | – | 40 | – | – | 8 | – | – | – | – | – | – | – | – | – | – | – | –
